Data set [1] concerns SU-DIPG-XIII FL cells. In words: Matrigel invasion assay (Boyden chamber) of DIPG cells. Format: cell-based, human. The note with it: DIPG cells expressing the shRNA; for DIPG invasion toward SVZ hNPC CM or the PTN complex: vs scrambled control; for baseline DIPG invasion toward unconditioned hNPC media: vs scrambled shRNA. The procedure:
To test for chemoattraction and invasion toward neural precursor cell conditioned media or another candidate chemoattractant, a single-cell suspension of 100,000 DIPG cells in Tumor Stem Media (TSM) base (with B27 (−A) and heparin, without growth factors) was seeded in the top inserts of BioCoat growth factor reduced Matrigel invasion chambers (Corning, Bedford, Mass.), after rehydration of the inserts. Chemoattractant media was added to the bottom of the chamber. All conditions were plated in triplicate. After 72 hours, media was aspirated, and the non-invading cells on top of the layer of Matrigel were scrubbed off. The invading cells were fixed in 4% paraformaldehyde and then stained with 0.1% crystal violet in 10% methanol in distilled water. The number of invading cells was quantified by the intensity of the crystal violet dye on the invading side of the Matrigel. The dye was collected in 10% acetic acid, and absorbance was measured at 595 nm.
To test the ROCK or HSP90 inhibitors in the Matrigel invasion assay, the inhibitors were added to the suspension of glioma cells in TSM base (with B27 (−A) and heparin) seeded in the top inserts at the appropriate concentrations, and neural precursor cell conditioned media was plated in the bottom chambers. The rest of the procedure was performed as described above.

Data set [2] concerns PTPRZ1. In words: Knockdown of PTPRZ1 in DIPG cells (qPCR, Western blot). The data set is classed as cell-based, human. Conditions: vs scrambled shRNA control or no shRNA; for PTPRZ1 gene expression: qPCR. As to the method: Samples were run on Bio-Rad Mini-Protean TGX precast gels (Bio-Rad, Hercules, Calif.), and the protein was transferred onto polyvinylidene fluoride (PVDF) membranes. Membranes were blocked with 5% bovine serum albumin (BSA) in TBST for 1 hour, and incubated in primary antibodies diluted in 1% BSA/TBST overnight at 4° C. Primary antibodies used were: mouse anti-pleiotrophin (1:100; Santa Cruz Biotechnology, Santa Cruz, Calif.), goat anti-SPARC (1:100; R&D Systems, Minneapolis, Minn.), goat anti-SPARCL1 ([…]; R&D Systems, Minneapolis, Minn.), rabbit anti-HSP90B (GeneTex, Irvine, Calif.), rabbit anti-GRP78 (1:500, Abcam, Cambridge, Mass.), rabbit anti-PTPRZ (Thermo Fisher, Waltham, Mass.), and rabbit beta-actin (1:2000; Cell Signaling, Danvers, Mass.). Secondary antibodies conjugated to horseradish peroxidase (HRP) were added for 1 hour at room temperature. Secondary antibodies used were: goat anti-rabbit IgG-HRP (Cell Signaling, Danvers, Mass.), horse anti-mouse IgG-HRP (Cell Signaling, Danvers, Mass.), and donkey anti-goat IgG-HRP (Santa Cruz Biotechnology, Santa Cruz, Calif.). Proteins were visualized using Clarity Western ECL Substrate (Bio-Rad, Hercules, Calif.).
Cells or tissue were lysed and homogenized in TRIzol Reagent (Life Technologies, Carlsbad, Calif.) and RNA was extracted according to reagent protocol. RNA was treated with dsDNase, and cDNA was synthesized using Thermo Scientific Maxima First Strand cDNA Synthesis Kit for RT-qPCR with dsDNase (Thermo Fisher Scientific K1671). RT-PCR was performed on Eppendorf Mastercycler Realplex2 using Universal SYBR Green Supermix (BioRad, Hercules, Calif.). Differential expression was determined using the deltaCt method. Primers used were as follows: […]
For lentiviral infection, DIPG cells or neural precursor cells were exposed to shRNA-expressing lentivirus for 16 hours. Puromycin was added 48 hours after infection to select for virally infected cells. After removal of puromycin, shRNA-treated neural precursor cells were grown for 7 days (with addition of media on day 3-4) for generation of conditioned media. […]

Data set [3] has as its system ROCK. In words: Rho-associated kinase (ROCK) activity assay in DIPG cells. Conditions: DIPG cells expressing the shRNA exposed to SVZ hNPC CM or the PTN complex; vs scrambled shRNA. Format: cell-based, human. The procedure:
(§1) SU-DIPG-XIII frontal lobe cells were starved in TSM base (without B27 (−A) supplement, heparin, or growth factors) for 48 hours prior to treatment. After treatment, cells were lysed in the RhoA activation assay kit cell lysis buffer (Cytoskeleton, Denver, Colo.). Lysates were incubated on ice for 1 minute, clarified by centrifugation at 10,000×g, 4° C. for 1 minute, and the supernatants were snap-frozen and stored immediately at −80° C. Protein concentrations were measured by the BCA protein assay (Thermo Scientific, Waltham, Mass.), and samples were diluted to 0.5 mg/mL by the addition of cell lysis buffer.
ROCK activation assays were performed using the Rho-associated kinase (ROCK) activity assay (Millipore, Bedford, Mass.). Cell lysates were incubated in wells of a myosin phosphatase target subunit 1 (MYPT1) pre-coated 96-well plate, for 30 minutes at 30° C. with moderate shaking. Wells were incubated in anti-phospho-MYPT1(Thr696) primary antibody (1:1000) for 1 hour with moderate shaking. Goat anti-rabbit IgG HRP secondary antibody (1:2000) was added for 1 hour with moderate shaking. Results were visualized with TMB/E substrate, incubating in the dark for 10 minutes, and absorbance was read at 450 nm. All assays were performed in triplicate.

Data set [4] concerns SU-DIPG-XIII FL cells. In words: Orthotopic xenograft of PTPRZ1 knockdown DIPG cells. Format: in vivo, NSG mice. Conditions: knockdown cells xenografted to the pons, vs scrambled shRNA control cells; for DIPG cells invading the SVZ: 8 weeks following xenograft. The procedure: (§2) NSG mice at age P34-36 were orthotopically xenografted with SU-DIPG-XIII frontal lobe CMV-GFP-luciferase cells, in a similar procedure to as previously described (Grasso et al., supra; Venkatesh et al. (2015) Cell 161, 803-816). Briefly, a single-cell suspension of SU-DIPG-XIII frontal lobe CMV-GFP-luciferase cells at passage 16-19 was prepared in sterile HBSS immediately before beginning the xenograft procedure. 600,000 cells in 3 μL were stereotactically injected into the pons of the left hemisphere of NSG mice, through a 31-gauge burr hole. Stereotactic coordinates used were: 1 mm lateral to midline, 0.8 mm posterior to lambda suture, and 5 mm deep. Cells were injected at a rate of 0.4 μL/min using a digital pump and a 31-gauge Hamilton syringe. After infusion of cells, the syringe needle was kept in place for 2 minutes, and then withdrawn manually at a rate of 0.875 mm/min to minimize the backflow of cells.
(§3) Mice were imaged using an IVIS Spectrum to ensure tumor engraftment and monitor tumor size. Mice were anesthetized under 1% isoflurane, intraperitoneally injected with luciferin (15 mg/kg), and imaged for bioluminescence every minute until the peak total flux was reached.
For lentiviral infection, DIPG cells or neural precursor cells were exposed to shRNA-expressing lentivirus for 16 hours. Puromycin was added 48 hours after infection to select for virally infected cells. After removal of puromycin, shRNA-treated neural precursor cells were grown for 7 days (with addition of media on day 3-4) for generation of conditioned media. After removal of puromycin, shRNA-treated DIPG cells were grown for at least one passage before experimental use.

Data set [5] concerns SU-DIPG-XIII FL cells. In words: CellTiter-Glo cell viability assay. Conditions: base media without growth factors, vs scrambled control or no shRNA. The data set is classed as cell-based, human. The procedure: To assess cell viability, 5,000 DIPG cells per well were seeded in base media or full growth media in a 96-well plate. Inhibitors were added at the appropriate concentrations. After 72 hours, CellTiter-Glo reagent 2.0 was added at a 1:1 ratio, and cells were lysed. Luminescence was measured after stabilization of signal for 10 minutes at room temperature.

The subject of data set [6] is RhoA. In words: G-LISA RhoA activation assay in DIPG cells. The data set is classed as cell-based, human. The note with it: DIPG cells expressing the shRNA exposed to SVZ hNPC CM or the PTN complex; vs scrambled shRNA. The procedure:
as §1
RhoA activation assays were performed using the G-LISA RhoA absorbance-based activation assay (Cytoskeleton, Denver, Colo.). Lysate samples were incubated in a 96-well plate with pre-linked Rho GTP-binding protein for 30 minutes at 4° C. shaking at 400 rpm. Wells were incubated in anti-RhoA primary antibody (1:250) at room temperature for 45 minutes shaking at 400 rpm. Secondary HRP-labeled antibody (1:62.5) was added at room temperature for 45 minutes shaking at 400 rpm. Results were visualized by addition of HRP detection reagents for 12 minutes at 37° C., and the absorbance was read at 490 nm. All assays were performed in triplicate.

In data set [7] the test system is SU-DIPG-XIII FL cells. In words: shRNA-expressing lentivirus injected into the SVZ of orthotopically xenografted mice. The note with it: vs scrambled shRNA control; for DIPG cells invading the SVZ: 16 weeks following pontine xenograft. Format: in vivo, NSG mice. The procedure: as §2
(§4) Mice used for shRNA lentivirus studies received shRNA-expressing lentivirus in the SVZ at P27-29 and DIPG cells in the left pons at P34-36. For lentiviral injections, 2 μL of shRNA-expressing lentivirus were stereotactically injected into the SVZ. Stereotactic coordinates used were: 1.3 mm lateral to midline, 0.1 mm posterior to bregma suture, and 2 mm deep. Virus was injected and the needle was withdrawn according to the same procedure as described above.
as §3
For quantification of DIPG invasion of the SVZ after knock down of targets in the SVZ, 5 NSG mice per group were injected with shRNA-expressing lentivirus in bilateral SVZs and orthotopically xenografted with SU-DIPG-XIII FL in the left pons. Mice were perfused for analysis 16 weeks after xenograft. A 1:6 series of coronal slices from each mouse brain was immunostained and imaged, and the number of GFP^+ HNA^+ glioma cells within 200 μm of the lateral ventricles in all slices containing lateral ventricles was manually counted.
For quantification of neural stem/precursor cells in the SVZ after knock down of PTN in the SVZ, a 1:6 series of coronal slices from each mouse was immunostained and imaged, and the number of Sox2^+ neural stem/precursor cells in a 20×Z-stack was manually counted. The density of Sox2^+ cells was calculated as cells/mm^3.

In data set [8] the test system is HSP90B. In words: Knockdown of HSP90B expression in the mouse SVZ. Format: in vivo. Conditions: lentivirus injected into the SVZ; vs scrambled shRNA control. As to the method:
as §4
Mice were intraperitoneally injected with Avertin (tribromoethanol) for anesthesia, and then transcardially perfused with 20 mL of ice-cold PBS. Brains were dissected out and fixed in 4% paraformaldehyde in PBS overnight at 4° C., and were then transferred to 30% sucrose in PBS for cryoprotection. Brains were embedded in Tissue-Tek O.C.T. (Sakura, Torrance, Calif.). Brains from mice older than P10 were sliced into 40 μm coronal or sagittal sections using a sliding microtome (Microm HM450; Thermo Scientific, Waltham, Mass.). Brains from mice age P0 to P10 were sliced into 25 μm coronal sections using a cryostat (Leica Biosystems CM3050 S; 1058 Wetzlar, Germany). For immunohistochemistry, a 1 in 6 series of 25 μm or 40 μm sections was incubated in blocking solution (3% normal donkey serum, 0.3% Triton X-100 in TBS) at room temperature for 1 hour. […]

Where [9] appears, read: listed as shRNA lentivirus targeting PTPRZ1.
The mark [10] stands for this setting: listed as shRNA-expressing lentivirus targeting the HSP90B1 gene.

Entries after “also recorded” stand apart in the source; their conditions may differ.

Regarding “PTPRZ1 shRNA: lentivirus-expressed shRNA against human PTPRZ1, Sigma TRCN0000356374, SEQ ID NO: 13 (CCGGATACCTAAGTCTTCGTTAATACTCGAGTATTAACGAAGACTTAGGTATTTTTTG)”, the figures for the “DIPG invasion toward SVZ hNPC CM or the PTN complex” value in data set [1] and in data set [1] (setting [9]) were “partial abrogation of invasion” and “partially abrogates DIPG invasion”, respectively. In addition, the “baseline DIPG invasion toward unconditioned hNPC media” value is “substantially decreases baseline invasion” in data set [1] and “decrease in baseline DIPG invasion” in data set [1] (setting [9]). Also, the PTPRZ protein levels result in data set [2] (Western blot) is given as “effective knock down”. Also, the PTPRZ1 gene expression entry in data set [2] was “Robust shRNA-mediated knockdown of PTPRZ1 expression”; in data set [2] (setting [9]), “effective knock down of PTPRZ1 gene expression”. The ROCK activation entry in data set [3] is “abrogation of RhoA and ROCK activation; also recorded: decreased activation of RhoA and ROCK”. The “DIPG cells invading the SVZ” value in data set [4] is reported as “significantly fewer cells expressing PTPRZ1 shRNA reached the SVZ”; in data set [4] (setting [9]), “fewer DIPG cells with knockdown of PTPRZ1 invaded the SVZ”. The “decrease of total tumor size (engraftment), bioluminescent signal on initial IVIS imaging” value in data set [4] worked out at 10 fold. In addition, the “tumor growth over time” value in data set [4] is recorded as “rate of growth was similar”. The “cell viability of DIPG cells expressing the shRNA” value was “mildly decreases cell viability” in data set [5] and “mild decrease in cell viability” in data set [5] (setting [9]). Moreover, the RhoA activation entry in data set [6] was “abrogation of RhoA and ROCK activation; also recorded: decreased activation of RhoA and ROCK”.
Turning to “sh-HSP90B1: lentivirus-expressed shRNA against mouse HSP90B1, Sigma TRCN0000071925, SEQ ID NO: 12 (CCGGGCTATTCAGTTGGATGGGTTACTCGAGTAACCCATCCAACTGAATAGCTTTTTG)”, the entries for the “DIPG cells invading the SVZ” value in data set [7] and in data set [7] (setting [10]) were “fewer orthotopically xenografted GFP^+ HNA^+ SU-DIPG-XIII FL cells invaded the SVZ” and “fewer DIPG cells invading the SVZ”, respectively. In addition, the “tumor engraftment (bioluminescent flux)” value in data set [7] (listed as shRNA lentivirus targeting HSP90B1) was “equivalent”; in data set [7] (setting [10]), “no effect on initial tumor engraftment”. Further, the “HSP90B expression in the SVZ” value in data set [8] is “low HSP90B expression after knockdown”.

For the origin of these results see patent US10550388B2, “Targeting pleiotrophin signaling to limit high-grade glioma invasion” (The Board of Trustees of the Leland Stanford Junior …, priority 2017, dated 2020).
